Assay [1] concerns the target T1, lycopene cyclase (CarRP) (Mucor circinelloides f. lusitanicus, UniProt Q9UUQ6).
T1 construct: made in house; host or cells: Yarrowia lipolytica (po1f-derived strains); crude microsomal fraction
The assay can be described thus: In vitro enzymatic assay of lycopene cyclase in yeast microsomes. It is filed as biochemical. The conditions noted are these: wild type CarRP (or CarR); lycopene 50˜350 mol/L as substrate, 30° C., 16 h. On the procedure:
(§1) To test this hypothesis, possible correlations between lycopene cyclase activity and lycopene concentration were examined using an in vitro enzymatic assay that employed a yeast microsomal system, as CarRP is predicted to be a membrane protein with six transmembrane helices (FIG. 26). […] This supported the hypothesis that lycopene cyclase was substrate-inhibited, thus creating a major bottleneck in carotenoid biosynthesis.
(§2) Yeast microsomes for in vitro enzymatic assays were prepared as described previously (Pompon et al., 1996). Briefly, strains harboring wild type or mutated CarRP were grown overnight in YNB media at 30° C. and then inoculated into 200 mL YNB media to an initial OD600 of 0.1. After 24 h cultivation, cells were collected by centrifugation at 4,000 rpm for 10 min. Resuspension of the cells in TEK buffer (50 mM Tris-HCl, pH 6.8, 1 mM EDTA, 0.1 M KCl) followed, and the solution was kept at room temperature for 5 min. Afterwards, the cells were recovered by centrifugation, washed in TES buffer (50 mM Tris-HCl, pH 6.8, 1 mM EDTA, 0.6 M sorbitol), resuspended in TESM buffer (50 mM Tris-HCl, pH 6.8, 1 mM EDTA, 0.6 M sorbitol, 14 mM 2-mercaptoethanol), and left at room temperature for 10 min. […] The solution was vortex for 10 min, and the organic phase was collected by centrifugation and analyzed by HPLC.

The target of assay [2] is T2, lycopene cyclase (CarRP) (Mucor circinelloides f. lusitanicus, UniProt Q9UUQ6, Y27R).
T2 construct: made in house; host or cells: Yarrowia lipolytica (po1f-derived strains); crude microsomal fraction
Described as above. The conditions noted are these: CarRP (or CarR) variant compared to wild type; relative catalytic activity, FIG. 16D. In kind it is biochemical. On the procedure:
as §1, §2

“Also recorded” adds a separate entry of the source.

The text below walks through data of patent publication US20250101485A1, “METHODS OF PRODUCING C[…] ACID WHEY” (priority 2022, published 2025).

T2 sequence (Q9UUQ6 whole entry Y27R): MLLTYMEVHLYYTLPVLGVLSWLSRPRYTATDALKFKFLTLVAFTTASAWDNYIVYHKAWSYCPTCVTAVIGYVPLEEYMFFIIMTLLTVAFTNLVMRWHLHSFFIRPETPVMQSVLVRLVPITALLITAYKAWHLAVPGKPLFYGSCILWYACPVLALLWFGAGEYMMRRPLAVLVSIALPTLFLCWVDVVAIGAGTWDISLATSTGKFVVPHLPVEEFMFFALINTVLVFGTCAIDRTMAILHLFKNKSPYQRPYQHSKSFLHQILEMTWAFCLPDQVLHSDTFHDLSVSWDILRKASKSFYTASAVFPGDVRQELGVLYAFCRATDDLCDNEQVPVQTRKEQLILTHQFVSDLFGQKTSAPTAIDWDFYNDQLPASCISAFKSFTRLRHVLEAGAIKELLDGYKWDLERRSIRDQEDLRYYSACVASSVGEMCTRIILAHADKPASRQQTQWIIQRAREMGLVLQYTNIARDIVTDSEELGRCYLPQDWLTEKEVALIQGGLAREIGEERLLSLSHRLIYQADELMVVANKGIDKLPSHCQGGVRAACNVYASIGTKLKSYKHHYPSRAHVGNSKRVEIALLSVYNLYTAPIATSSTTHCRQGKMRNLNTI
T1 sequence (Q9UUQ6 whole entry): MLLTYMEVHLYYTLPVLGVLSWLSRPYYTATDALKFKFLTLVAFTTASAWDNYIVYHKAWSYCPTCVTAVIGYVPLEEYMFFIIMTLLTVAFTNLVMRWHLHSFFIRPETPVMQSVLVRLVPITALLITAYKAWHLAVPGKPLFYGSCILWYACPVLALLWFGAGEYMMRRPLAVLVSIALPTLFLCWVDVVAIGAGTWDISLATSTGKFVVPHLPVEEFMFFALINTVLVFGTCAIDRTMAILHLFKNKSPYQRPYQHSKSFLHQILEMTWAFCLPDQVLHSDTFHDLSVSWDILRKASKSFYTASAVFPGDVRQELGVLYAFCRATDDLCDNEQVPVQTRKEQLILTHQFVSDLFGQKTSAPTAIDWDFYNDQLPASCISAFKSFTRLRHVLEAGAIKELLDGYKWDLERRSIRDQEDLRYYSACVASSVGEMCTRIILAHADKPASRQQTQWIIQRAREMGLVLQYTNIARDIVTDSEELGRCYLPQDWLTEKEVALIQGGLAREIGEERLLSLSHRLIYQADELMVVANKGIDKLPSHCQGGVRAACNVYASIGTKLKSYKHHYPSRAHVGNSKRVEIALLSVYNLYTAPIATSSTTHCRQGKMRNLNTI

Consider `CC(C)=CCC/C(C)=C/C=C/C(C)=C/C=C/C(C)=C/C=C/C=C(C)/C=C/C=C(C)/C=C/C=C(\C)CCC=C(C)C` [lycopene], for which, on lycopene cyclase (CarRP) [1], the “lycopene cyclase activity with respect to lycopene concentration (substrate inhibition)” value was “bi-phasic; also recorded: inhibited its downstream enzyme, lycopene cyclase, through substrate inhibition”.

B1: Y27R: variant of the R domain (lycopene cyclase) of CarRP with the substitution Y27R (protein)
chain: MLLTYMEVHLYYTLPVLGVLSWLSRPRYTATDALKFKFLTLVAFTTASAWDNYIVYHKAWSYCPTCVTAVIGYVPLEEYMFFIIMTLLTVAFTNLVMRWHLHSFFIRPETPVMQSVLVRLVPITALLITAYKAWHLAVPGKPLFYGSCILWYACPVLALLWFGAGEYMMRRPLAVLVSIALPTLFLCWVDVVAIGAGTWDISLATSTGKFVVPHLPVEEFMFFALINTVLVFGTCAI
As for B1, in the assay with lycopene cyclase (CarRP) [2], the “substrate inhibition of lycopene cyclase variant by lycopene” value is “complete loss of substrate inhibition without reduction in enzyme activity; also recorded: completely free of substrate inhibition”.
